# Results: patent publication US9718869B2, “Peptide-based compounds and uses thereof to treat beta-amyloid accumulation” (MANUS PHARMACEUTICALS (CANADA) LTD., priority 2012, dated 2017)
# Several values for one entry are separate records, joined by “and”; a condition that tells them apart may be missing. Equal entries are not always repeated. Entries after “also recorded” stand apart in the source; their conditions may differ. Where two headings read alike, the source gives them in different places. No end group written: not given here.
# Legend:
# [1] = test system: sham operated (SO) mice; conditions: mouse, in vivo
# Description: Experiments were performed on NMRI mice weighing 20-30 g. Initiation of Alzheimer's type neurodegenerative process was caused by the removal of the animal's olfactory bulb (bulbectomy). The operation was performed under sterile conditions under nembutal anesthesia (40 mg/kg). For local anaesthesia during scalping, a subcutaneous injection of 0.5% solution of novocaine was used. […] A group of animals to serve as control was sham-operated (SO); these animals were subjected to the same procedure but without removal of the olfactory bulbs. After surgery all animals were injected with “Bitsillin 5” antibiotic into the muscles of the hind paw at a dose of 6000 units for the prevention of infection. Upon completion of behavioral experiments, morphological studies of animal brains were conducted to ensure complete removal of olfactory bulbs.
# The state of spatial memory was assessed after mice had developed spatial skills in the Morris water maze, which combines training in the formation of active avoidance and the ability to navigate in space. This method enables separate evaluation of learning and memory.
# The experimental chamber was a plastic pool of dimensions 100×60×30 cm, filled with water at a temperature of 23 degrees Celsius. […] The water was clouded with milk so that animals could not visually detect the rescue platform.
# All mice were pre-tested for the ability to swim and absence of an original sector preference in the water maze. The goal of the education was to have mice in one minute find the underwater platform and remember its location. Training was conducted in four sessions every day for five days, and the latency period for finding the platform was recorded for every session. 24 hours after completion of training, the level of the animal's spatial memory in the absence of a rescue platform was tested for one minute. Two indicators were used in analyzing the results: the number of visits to each sector of the maze and time spent in each sector.
# Two-factor analysis (general ANOVA) was used for statistical analysis of behavioral data. Post-hoc analysis was performed using the criterion of LSD (least significant difference). The reliability of the results was also evaluated using two-tailed Student's t-test.
# [2] = test system: β-amyloid (1-40); conditions: mouse, in vivo
# Description: (§1) To collect brain structures to determine the biochemical level of β-amyloid, mice were decapitated and the brain was removed in the cold. The cortex was removed by scalpel from both hemispheres, the hippocampus was bilaterally removed, the probes were placed in labeled plastic test tubes that were frozen at −80° C. and stored in a freezer until the biochemical study of the level of β-amyloid.
# (§2) Biochemical identification of β-amyloid (1-40) by enzyme immunoassay was performed as follows: samples of the cortex and hippocampus, which were stored at −80° C. after collection, were weighed, thawed at room temperature, and then homogenized in a solution of 2% CHAPS 20 mM Tris-HCl (pH 7.7) in the presence of protease inhibitors (10 μg/ml leupeptin, 10 μg/ml aprotinin and 10 μg/ml AEBSF) in a volume calculated for each sample (4 ml of solution per 1 g of tissue), using a RT-12 tissue microgrinder in a glass beaker for the homogenization using a ground-glass pestle. Homogenates were centrifuged at 21,000 g at 4° C. for 30 min. Selected supernatants were stored at −80° C. and thawed immediately prior to the immunoassay analysis.
# Another part of the samples were homogenized in 5 M guanidine-HCl solution of 50 mM Tris-HCl (pH 8.0), in a volume calculated for each sample (400 mcl of solution per 50 mg of tissue). […]
# [3] = test system: bulbectomized (BE) mice; assay: Morris water maze spatial memory test, bulbectomized mice immunized with NP-1 / R-1-NP-1 in IFA (Example 1); format: in vivo, NMRI mice; conditions: for Ratio of sector visits to total number of all visits, sector 1 / Ratio of sector visits to total number of all visits, sector 2 / Ratio of sector visits to total number of all visits, sector 3 (training sector with platform) / Ratio of sector visits to total number of all visits, sector 4 / Time spent in sector 1 / Time spent in sector 2 / Time spent in sector 3 (training sector with platform) / Time spent in sector 4: BE (bulbectomized) mice, 4 immunizations with IFA, 1 min memory test; for Effect of immunization on spatial memory of BE mice (in words): immunization with IFA, no complete Freund's adjuvant
# Description: The immunization was carried out in four stages.
# This method enables separate evaluation of learning and memory.
# [4] = test system: β-amyloid (1-40); assay: ELISA of β-amyloid (1-40) in brain (cortex+hippocampus) of bulbectomized immunized mice; format: in vivo, NMRI mice; conditions: for Average level of βA / Individual levels of βA: BE (bulbectomized) mice, cortex+hippocampus; for Individual levels of βA: one value per mouse
# Description: as §1, §2
# Another part of the samples were homogenized in 5 M guanidine-HCl solution of 50 mM Tris-HCl (pH 8.0), in a volume calculated for each sample (400 mcl of solution per 50 mg of tissue). The samples were stirred for 3-4 hours at room temperature, then diluted in BSAT-DPBS (5% BSA, 0.03% Tween-20) buffer, centrifuged at 21,000 g at 4° C. for 30 min, after which the supernatants were collected.
# The immunosorbent assay was performed using the instructions on the ELISA for the determination of β-amyloid (1-40) (Aβ40) mouse (ELISA kit mouse Aβ40, Invitrogen).
# After testing the memory of all groups of animals, brain perfusion was carried out in the cold under deep anaesthesia, and individual samples of brain tissue (cortex+hippocampus) were collected, which were stored in a freezer at a temperature of −80° C. until biochemical studies.
# [5] = test system: bulbectomized (BE) mice; assay: Morris water maze spatial memory test, bulbectomized mice immunized with KLH conjugates of NP-1 fragments (Example 2); format: in vivo, NMRI mice; conditions: KLH conjugate, 1st immunization CFA, 2nd IFA, 0.1 mg/mouse
# Description: NMRI mice (see Example 1) were immunized with peptides conjugated to snail keyhole limpet hemocyanin (KLH).
# In this study, a scheme with a double introduction of peptides into mice with complete Freund's adjuvant (CFA) for the first immunization and incomplete Freund's adjuvant (IFA) for the second immunization was used. Between the first and second immunization a bulbectomy was performed. After the second immunization, one month after bulbectomy, the mice's state of spatial memory was tested, after which the mice were put down and their blood and cerebrospinal fluid were collected to determine their level of antipeptide antibodies.
# To prepare the peptide conjugates with KLH, 0.75 mg of peptide was dissolved in 0.65 ml of KLH in PBS with a protein concentration of 5.8 mg/ml and stirred for an hour while adding 38 μl of 2.5% glutaraldehyde solution in PBS. The resulting solution was stirred for 15 hours and dialyzed against PBS for 20 hours.
# Tables 12 and 13 present the results of statistical analysis of spatial memory test data using univariate analysis (one-way ANOVA), to judge the ability of the animal to distinguish sections of the Morris water maze.
# [6] = test system: bulbectomized mice; assay: Morris water maze spatial memory test, bulbectomized mice immunized with (FR-3-NP-1)2-Lys-OH / (R-2-FR-3-NP-1)2-Lys-OH in IFA (Example 3); format: in vivo, NMRI mice; conditions: four immunizations with IFA; for Number of visits to the training/rescue compartment (in words) / Time spent in the training/rescue compartment (in words): BE mice
# Description: Immunization was carried out in four stages.
# Each group consisted of 5-8 mice.
# [7] = test system: animals with experimentally induced AD; conditions: cited from earlier work
substance,measurement,setting,value
cyclo(Ala-Glu)-Trp-(Glu-Trp-Asp-Leu-Val-Gly-Ile-Pro-Gly-Lys-Arg-Ser-Glu-Arg-Phe-Tyr-Cys-Cys-Lys-Glu) ({cyclo(Ala-Glu)}-WEWDLVGIPGKRSERFYCCKE; cysteine pairing not given here) [R-1-NP-1],"Ratio of sector visits to total number of all visits, sector 1",[1],12.4 ± 2.7 percentage
same,"Ratio of sector visits to total number of all visits, sector 2",[1],26 ± 2.86 percentage
same,"Ratio of sector visits to total number of all visits, sector 3 (training sector with platform)",[1],40 ± 2.19 percentage
same,"Ratio of sector visits to total number of all visits, sector 4",[1],22.2 ± 3.18 percentage
same,Time spent in sector 1,[1],7.2 ± 1.83 s
same,Time spent in sector 2,[1],14 ± 2.43 s
same,Time spent in sector 3 (training sector with platform),[1],30.41 ± 2.42 s
same,Time spent in sector 4,[1],8.4 ± 1.96 s
same,Average level of βA,[2],2.78 ± 0.21 ng/g tissue
same,"Ratio of sector visits to total number of all visits, sector 1",[3],20.67 ± 2.2 percentage
same,"Ratio of sector visits to total number of all visits, sector 2",[3],27 ± 1.46 percentage
same,"Ratio of sector visits to total number of all visits, sector 3 (training sector with platform)",[3],34.33 ± 2.44 percentage
same,"Ratio of sector visits to total number of all visits, sector 4",[3],18.17 ± 1.49 percentage
same,Time spent in sector 1,[3],12.17 ± 2.06 s
same,Time spent in sector 2,[3],13.67 ± 1.5 s
same,Time spent in sector 3 (training sector with platform),[3],25.33 ± 4.02 s
same,Time spent in sector 4,[3],8.83 ± 1.85 s
same,Effect of immunization on spatial memory of BE mice (in words),[3],showed improvement of spatial memory; also recorded: resulted in improved memory; also recorded: protects the spatial memory; also recorded: led to memory protection
same,Change of βA level versus non-immunized BE mice (in words),[4],significant reduction of β-amyloid
same,Average level of βA,[4],2.985 ± 0.2 ng/g tissue
same,Individual levels of βA,[4],2.525 ng/g tissue and 3.704 ng/g tissue and 3.705 ng/g tissue and 2.398 ng/g tissue and 2.91 ng/g tissue and 2.77 ng/g tissue and 2.882 ng/g tissue
SERFYECCKE (cysteine pairing not given here) [FR-3-NP-1],"Ratio of sector visits to total number of all visits, sector 1",[5],20.75 ± 1.25 percentage
same,"Ratio of sector visits to total number of all visits, sector 2",[5],26.25 ± 2.95 percentage
same,"Ratio of sector visits to total number of all visits, sector 3 (training sector with platform)",[5],32.0 ± 4.3 percentage
same,"Ratio of sector visits to total number of all visits, sector 4",[5],21.0 ± 2.38 percentage
same,Time spent in sector 1,[5],13.0 ± 1.91 s
same,Time spent in sector 2,[5],13.75 ± 2.1 s
same,Time spent in sector 3 (training sector with platform),[5],25.25 ± 3.47 s
same,Time spent in sector 4,[5],8.0 ± 1.58 s
(cyclo(Ala-Glu)(Trp-Ser-Glu-Arg-Phe-Tyr-Glu-Cys-Cys-Lys-Glu))2-Lys-OH ({cyclo(Ala-Glu)}-WSERFYECCKEK-OH; cysteine pairing not given here; also: dimer: two chains joined on Lys-OH) [(R-2-FR-3-NP-1)2-Lys-OH],Number of visits to the training/rescue compartment (in words),[6],preferred the second and third compartments
same,Time spent in the training/rescue compartment (in words),[6],selected the third compartment with statistical significance
EWDLVGIPGKRSERFY [FR-1-NP-1],"Ratio of sector visits to total number of all visits, sector 1",[5],22.17 ± 2.63 percentage
same,"Ratio of sector visits to total number of all visits, sector 2",[5],30.17 ± 1.49 percentage
same,"Ratio of sector visits to total number of all visits, sector 3 (training sector with platform)",[5],30.83 ± 2.32 percentage
same,"Ratio of sector visits to total number of all visits, sector 4",[5],18.33 ± 1.74 percentage
same,Time spent in sector 1,[5],15.83 ± 2.88 s
same,Time spent in sector 2,[5],17.0 ± 2.21 s
same,Time spent in sector 3 (training sector with platform),[5],18.33 ± 2.04 s
same,Time spent in sector 4,[5],8.83 ± 0.7 s
Ser-Glu-Arg-Phe-Tyr-Glu-Cys-Cys-Lys-Glu-Lys(Ser-Glu-Arg-Phe-Tyr-Glu-Cys-Cys-Lys-Glu)-OH [(FR-3-NP-1)2-Lys-OH],Number of visits to the training/rescue compartment (in words),[6],much worse
same,Time spent in the training/rescue compartment (in words),[6],much worse
same,Effect of immunization on spatial memory of BE mice (in words),[6],only a slight tendency towards improvement of spatial memory
"EWDLVGIPGKRSERFYECCKE (cysteine pairing not given here) [NP-1, 2372355, reference compound]","Ratio of sector visits to total number of all visits, sector 1",[1],14.5 ± 1.89 percentage
same,"Ratio of sector visits to total number of all visits, sector 2",[1],27.5 ± 2.1 percentage
same,"Ratio of sector visits to total number of all visits, sector 3 (training sector with platform)",[1],40.75 ± 3.15 percentage
same,"Ratio of sector visits to total number of all visits, sector 4",[1],18 ± 2.08 percentage
same,Time spent in sector 1,[1],10.5 ± 2.25 s
same,Time spent in sector 2,[1],13 ± 1.68 s
same,Time spent in sector 3 (training sector with platform),[1],27.5 ± 1.5 s
same,Time spent in sector 4,[1],9 ± 1.58 s
same,Brain levels of βA (in words),[7]; animals with experimentally induced AD,prevented an increase in brain levels of βA
same,Antibodies produced by immunization (in words),[7]; in vivo,produced antibodies capable of binding to the type α7 AChRs
same,Spatial memory in healthy animals (in words),[7]; in vivo,did not lead to deterioration of spatial memory
same,Average level of βA,[2],3.22 ± 0.38 ng/g tissue
same,"Ratio of sector visits to total number of all visits, sector 1",[3],26.6 ± 1.54 percentage
same,"Ratio of sector visits to total number of all visits, sector 2",[3],27.8 ± 2.06 percentage
same,"Ratio of sector visits to total number of all visits, sector 3 (training sector with platform)",[3],24.2 ± 0.49 percentage
same,"Ratio of sector visits to total number of all visits, sector 4",[3],21.2 ± 1.6 percentage
same,Time spent in sector 1,[3],17 ± 0.84 s
same,Time spent in sector 2,[3],15.2 ± 1.69 s
same,Time spent in sector 3 (training sector with platform),[3],16 ± 11.14 s
same,Time spent in sector 4,[3],11.8 ± 1.91 s
same,Effect of immunization on spatial memory of BE mice (in words),[3],not capable of recalling the training sector; also recorded: did not improve their memory; also recorded: did not show protective activity; also recorded: did not exhibit memory protection
same,Change of βA level versus non-immunized BE mice (in words),[4],significant reduction of β-amyloid
same,Average level of βA,[4],2.44 ± 0.38 ng/g tissue
same,Individual levels of βA,[4],3.039 ng/g tissue and 2.316 ng/g tissue and 3.324 ng/g tissue and 1.115 ng/g tissue and 2.408 ng/g tissue
IPGKRSERFY [FR-2-NP-1],"Ratio of sector visits to total number of all visits, sector 1",[5],17.17 ± 2.32 percentage
same,"Ratio of sector visits to total number of all visits, sector 2",[5],34.5 ± 2.05 percentage
same,"Ratio of sector visits to total number of all visits, sector 3 (training sector with platform)",[5],35.51 ± 2.64 percentage
same,"Ratio of sector visits to total number of all visits, sector 4",[5],13.67 ± 2.53 percentage
same,Time spent in sector 1,[5],12.33 ± 2.38 s
same,Time spent in sector 2,[5],18.33 ± 1.82 s
same,Time spent in sector 3 (training sector with platform),[5],20.1 ± 1.86 s
same,Time spent in sector 4,[5],8.33 ± 1.98 s
